Experimental data from publication PMC3362676 (Cellular Signalling, 2012).
Ends that are not written are not given here. Peptide text beside a SMILES is read from it.

Tests used:
kB2R = kB2R (Homo sapiens, UniProt P30411); conditions: HEK-kB2R
[1] = ref [2], [9], [21], [24]; cited from earlier work
[2] = test system: HEK cells stably expressing kB1R; conditions: HEK cells expressing only the kB1R; 10 μM peptide in PBS; 30 min, 37 °C; HPLC
CPM = test: HEK cells stably expressing CPM, in PBS; conditions: human, 37 °C, up to 30 min

kB2R, sequence (P30411 whole entry): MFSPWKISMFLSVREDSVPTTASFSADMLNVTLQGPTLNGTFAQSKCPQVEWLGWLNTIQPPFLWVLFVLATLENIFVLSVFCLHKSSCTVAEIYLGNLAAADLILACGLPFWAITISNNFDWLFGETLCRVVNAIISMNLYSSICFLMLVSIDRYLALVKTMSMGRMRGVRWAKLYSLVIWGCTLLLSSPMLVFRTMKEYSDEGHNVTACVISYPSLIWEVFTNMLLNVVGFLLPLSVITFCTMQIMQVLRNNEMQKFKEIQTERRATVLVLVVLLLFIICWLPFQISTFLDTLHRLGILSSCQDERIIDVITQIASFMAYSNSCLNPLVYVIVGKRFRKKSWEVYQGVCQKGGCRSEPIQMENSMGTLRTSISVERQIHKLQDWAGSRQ

Molecule	lifetime in vivo [1]	cleaved bond (CPM)	further results
N=C(N)NCCC[C@H](NC(=O)[C@H](Cc1ccccc1)NC(=O)[C@@H]1CCCN1C(=O)[C@H](CO)NC(=O)[C@H](Cc1ccccc1)NC(=O)CNC(=O)[C@@H]1CCCN1C(=O)[C@@H]1CCCN1C(=O)[C@@H](N)CCCNC(=N)N)C(=O)O [BK, Bradykinin] (H-RPPGFSPFR-OH)	–	–	maximal ERK1/2 phosphorylation maintained from 40 – 60 min (kB2R; 1 μM BK, 40 – 60 min): 40%
NC(N)=NCCC[C@H](NC(=O)[C@H](Cc1ccccc1)NC(=O)[C@@H]1CCCN1C(=O)[C@H](CO)NC(=O)[C@H](Cc1ccccc1)NC(=O)CNC(=O)[C@@H]1CCCN1C(=O)[C@@H]1CCCN1C(=O)[C@@H](N)CCCN=C(N)N)C(=O)O [BK, Bradykinin] (H-RPPGFSPFR-OH)	lower than 30 seconds	–	hydrolysis of peptide [2]: no detectable hydrolysis
NCCCC[C@H](N)C(=O)N[C@@H](CCCN=C(N)N)C(=O)N1CCC[C@H]1C(=O)N1CCC[C@H]1C(=O)NCC(=O)N[C@@H](Cc1ccccc1)C(=O)N[C@@H](CO)C(=O)N1CCC[C@H]1C(=O)N[C@@H](Cc1ccccc1)C(=O)N[C@@H](CCCN=C(N)N)C(=O)O [KD, Kallidin]	lower than 30 seconds	–	maximal ERK1/2 activation still remaining at 40 min (kB2R; 1 μM KD, 40 min): 80%
KRPPGFSPFK	–	Phe-Lys10, 30 min	–
RPPGFSPFK	–	Phe-Lys9, 30 min	–
RPPGFSPFR	–	Phe-Arg9, 30 min	–
